Source: patent US20250382261A1 (The Broad Institute, Inc., priority 2021, published 2025)

Assays:
[1] = HEK293 cytotoxicity assay (Cell Titer Glo); format: cell-based; conditions: human, HEK293T Cytotoxicity (IC50, μg/mL)
Protocol: Cytotoxicity Assays. HEK293 (ATCC CRL 1573) cells were left to adhere for 18 h at 7.5×10^3 cells per well in DMEM containing 10% FBS and 2 mM L-glutamine. Compound was added directly into the well. After 48 h of treatment Promega Cell Titer Glo 2.0® was added, shaken for 10 min, and luminescence read (Biotek Neo). AC50 values were calculated using a four-parameter logistic curve in GraphPad Prism 9.
Focusing on only the analogs that retained synergistic activity with novobiocin (FICI≤0.5), half-maximal activity (AC50) values were calculated against HEK293 cells using a CellTiter-Glo® based assay to approximate cell viability. […] Specifically, the FICI value for both P35 and P36 was 0.094 against A. baumannii, while their AC50 values were 235 μg/mL and 200 μg/mL, respectively.

[2] = test system: LPS from E. coli EH100; assay: BODIPY-Cadaverine LPS displacement assay; format: binding; conditions: for LPS Displacement (EC50, μg/mL): BODIPY-cadaverine displacement from E. coli EH100 LPS
Protocol: BODIPY-Cadaverine LPS displacement assay. The BODIPY-cadaverine LPS displacement assay was performed as previously described (Wood et al. 2004. Combinatorial Chemistry & High Throughput Screening, 7: 239-49; Klobucar et al. 2021. ACS Chemical Biology, 16: 929-42). A solution of BODIPY-cadaverine (2.25 μM) and LPS from E. coli EH100 (5.25 μM) in Tris-HCl buffer (50 mM, pH 7.4) was prepared. 0.5 μL of compound and 49.5 μL of the Tris-HCl buffer with BODIPY-cadaverine and LPS solution were added to a Corning nonbinding surface black 384-well polystyrene plate. Fluorescence intensity was measured immediately with an excitation wavelength of 580 nm and an emission wavelength of 620 nm. EC50 values were calculated using a three-parameter logistic curve in GraphPad Prism 9.

[3] = test system: P. aeruginosa (PA01); assay: Checkerboard potentiation assay with novobiocin; format: cell-based
Protocol: (§1) Bacterial strains and culture conditions. The following bacterial strains were used within this study; A. baumannii (ATCC 17978), K. pneumoniae (ATCC 43816), K. pneumoniae (ATCC 43816, expressing pGDP2:mcr-1), P. aeruginosa (PA01). Bacterial growth was in cation-adjusted Mueller-Hinton broth (MHB) at 37° C., and inoculum was prepared according to CLSI protocol (CLSI 2015).
(§2) Potentiation assays. Checkerboard analyses were conducted with each drug serially diluted at eight concentrations to create an 8×8 matrix. At least two biological replicates were done for each combination, and the means were used for FIC calculation. The FIC for each drug was calculated by dividing the concentration of the drug in the presence of codrug in a combination for a well showing <10% growth by the MIC for that drug alone. The FIC index (FICI) is the sum of the two FICs, with an FIC index≤0.5 deemed synergistic.
(§3) To probe the spectrum of activity of the present analogs beyond A. baumannii, their interactions with novobiocin were assessed against the high-priority Gram-negative pathogens Klebsiella pneumoniae and P. aeruginosa (FIG. 5).

[4] = test system: K. pneumoniae (ATCC 43816); assay: Checkerboard potentiation assay with novobiocin; format: cell-based
Protocol: as §1, §2, §3

[5] = test system: A. baumannii (ATCC 17978); assay: Checkerboard potentiation assay with novobiocin; format: cell-based; conditions: with novobiocin
Protocol: as §1, §2

[6] = test system: A. baumannii ATCC 17978; assay: Systemic A. baumannii murine infection model; format: in vivo, mouse
Protocol: Mouse infection models. Animal experiments were conducted according to guidelines set by the Canadian Council on Animal Care using protocols approved by the Animal Review Ethics Board at McMaster University under Animal Use Protocol #20-12-43. Before infection, mice were relocated at random from a housing cage to treatment or control cages. No animals were excluded from analyses, and blinding was considered unnecessary. Seven- to nine-week-old female C57BL/6 mice (Charles River) were infected intraperitoneally with ˜2×10^6 CFU of A. baumannii ATCC 17978, with 5% porcine mucin (Sigma-Aldrich). Infections were allowed to establish for 2 h, and treatments were administered intraperitoneally. For the survival study, the clinical endpoint was determined using a five-point body condition score analyzing weight loss, decrease in body temperature, respiratory distress, hampered mobility and hunched posture. Experimental endpoint was defined as five days post-infection for mice not reaching clinical endpoint. For CFU/mL enumeration, animals were infected as described above and euthanized 6 h post-infection, and blood was collected into sterile 2 ml heparinized tubes (BD Scientific) serially diluted in PBS and plated onto solid LB. Plates were incubated overnight at 37° C., and colonies were quantified to determine bacterial load.
This was directly compared to the activity of P35 and P36 in this model (all administered at 10 mg/kg) in combination with novobiocin (50 mg/kg).
For this experiment the same A. baumannii infection model was used, however, endpoint was defined as 6 h post-infection, at which point blood was collected for CFU/mL enumeration (FIG. 2b).

Compound | IC50 at 48 h [1] [µg/mL] | LPS Displacement (EC50, μg/mL) [2] [µg/mL] | FICI PA [3] | FICI KP [4] | FICI AB [5] | Increase of LPS binding affinity compared to pentamidine ([2]; BODIPY displacement EC50 relative to pentamidine) [fold] | Animals rescued in combination with novobiocin ([6]; 10 mg/kg analog + 50 mg/kg novobiocin i.p. 2 h post-infection, endpoint 5 days) [%] | Impact on blood CFU/mL, treatment alone ([6]; alone, 6 h post-infection, compared to control-treated animals)
N=C(N)c1ccc(OCCC2(CCOc3ccc(C(=N)N)cc3)CCCC2)cc1 [Analog P02] | 15.3 | 77.29 | 0.281 | 0.187 | 0.156 |  |  | 
N=C(N)c1ccc(OCCC2(CCOc3ccc(C(=N)N)cc3)CCCCC2)cc1 [Analog P03] |  |  | 0.625 | 0.078 | 0.094 |  |  | 
N=C(N)c1ccc(OCCC2(CCOc3ccc(C(=N)N)cc3)CCCCCC2)cc1 [Analog P04] | 37.1 | 15.97 | 0.531 | 0.25 | 0.14 |  |  | 
CC(C)(CCOc1ccc(C(=N)N)cc1)CCOc1ccc(C(=N)N)cc1 [Analog P06] | 69.1 | 62.47 | 0.375 | 0.156 | 0.187 |  |  | 
CCC(CC)(CCOc1ccc(C(=N)N)cc1)CCOc1ccc(C(=N)N)cc1 [Analog P07] | 31.2 | 19.04 | 1 | 0.156 | 0.0625 | > 10 |  | 
N=C(N)c1ccc(OC2CCC(Oc3ccc(C(=N)N)cc3)CC2)cc1 (centres unmarked) [Analog P08] | > 160 | 288.7 | 2 | 0.25 | 0.375 |  |  | 
c1c[nH]c(-c2ccc(OCCCCCOc3ccc(-c4ncc[nH]4)cc3)cc2)n1 [Analog P11] | 104 |  | 2 | 2 |  |  |  | 
N=C(N)c1ccc(OCCCCCOc2ccc(C(=N)N)cc2F)c(F)c1 [Analog P12] | 95.5 | 63.21 | 0.5 | 0.187 | 0.187 |  |  | 
C[C@@H](CCC[C@H](C)Oc1ccc(C(=N)N)cc1)Oc1ccc(C(=N)N)cc1 [Analog P15A] | 106 | 118.2 | 0.5 | 0.25 |  |  |  | 
C[C@H](CCC[C@H](C)Oc1ccc(C(=N)N)cc1)Oc1ccc(C(=N)N)cc1 [Analog P15B] | 239 | 132.5 | 0.187 | 0.187 |  |  |  | 
C[C@H](CCC[C@@H](C)Oc1ccc(C(=N)N)cc1)Oc1ccc(C(=N)N)cc1 [Analog P15C] |  | 148.8 | 0.375 | 0.25 |  |  |  | 
CC(CCCC(C)Oc1ccc(C(=N)N)cc1)Oc1ccc(C(=N)N)cc1 (centres unmarked) [Analog P15] |  |  | 0.281 | 0.25 |  |  |  | 
N=C(N)c1ccc(OCCCCCOc2ccc(C(=N)N)nc2)cn1 [Analog P16] | 183 | 60.19 | 1 | 0.375 | 0.25 |  |  | 
N=C(NC1CCCCC1)c1ccc(OCCCCCOc2ccc(C(=N)NC3CCCCC3)nc2)cn1 [Analog P18] | 22.2 | 218.8 | 2 | 1 |  |  |  | 
N/C(=N\O)c1ccc(OCCCCCOc2ccc(/C(N)=N/O)nc2)cn1 [Analog P19] | 135 |  | 2 | 2 |  |  |  | 
N=C(N)c1ccc(OCCCCCOc2ccc(C(=N)N)cn2)nc1 [Analog P20] | > 320 |  | 2 | 0.25 | 0.25 |  |  | 

Compound | IC50 at 48 h [1] [µg/mL] | LPS Displacement (EC50, μg/mL) [2] [µg/mL] | FICI PA [3] | FICI KP [4] | FICI AB [5] | Increase of LPS binding affinity compared to pentamidine ([2]; BODIPY displacement EC50 relative to pentamidine) [fold] | Animals rescued in combination with novobiocin ([6]; 10 mg/kg analog + 50 mg/kg novobiocin i.p. 2 h post-infection, endpoint 5 days) [%] | Impact on blood CFU/mL, treatment alone ([6]; alone, 6 h post-infection, compared to control-treated animals)
N=C(N)c1ccc(OCCC2CCCCC2CCOc2ccc(C(=N)N)cc2)cc1 (centres unmarked) [Analog P21] | 19.2 | 13.08 | 1 | 0.046 | 0.094 |  |  | 
C[C@@H](CCCOc1ccc(C(=N)N)cc1)COc1ccc(C(=N)N)cc1 [Analog P22R] | 94.2 | 26.02 | 0.3125 | 0.25 |  |  |  | 
C[C@H](CCCOc1ccc(C(=N)N)cc1)COc1ccc(C(=N)N)cc1 [Analog P22S] | 53.7 | 59.08 | 0.375 | 0.25 |  |  |  | 
N=C(N)c1ccc(OCCC[C@@H]2CCCN(c3ccc(C(=N)N)cc3)C2)cc1 [Analog P24A] | 77.9 | 91.74 | 0.375 | 0.187 |  |  |  | 
N=C(N)c1ccc(OCCC[C@H]2CCCN(c3ccc(C(=N)N)cc3)C2)cc1 [Analog P24B] | 57.9 | 149.5 | 0.75 | 0.187 |  |  |  | 
N=C(N)c1ccc(OCCC2(CCOc3ccc(C(=N)N)cc3)CCC(C(=O)O)CC2)cc1 (centres unmarked) [Analog P30] | 1100 | 119.4 | 2 | 1 | 0.625 |  |  | 
N=C(N)c1ccc(OCCNCCOc2ccc(C(=N)N)cc2)cc1 [Analog P31A] | > 640 | 497.8 | 2 |  | 0.5 |  |  | 
N=C(N)c1ccc(OCC2(COc3ccc(C(=N)N)cc3)CCCCC2)cc1 [Analog P31] | 73.5 | 43.82 | 0.187 | 0.0937 | 0.094 |  |  | 
N=C(N)c1ccc(OCCN(CCOc2ccc(C(=N)N)cc2)CCC(F)(F)F)cc1 [Analog P34] | > 80 | 134.3 | 0.375 |  | 0.25 |  |  | 
N=C(N)c1ccc(OCCN(CCOc2ccc(C(=N)N)cc2)Cc2ccccc2)cc1 [Analog P36] | 200 | 165.9 | 0.5 |  | 0.094 |  | 80 | 
N=C(N)c1ccc(OCCC(N)CCOc2ccc(C(=N)N)cc2)cc1 (centres unmarked) [Analog P37] |  |  | 2 |  | 0.75 |  |  | 
N=C(N)c1ccc(OCCC(CCOc2ccc(C(=N)N)cc2)N2CCCC2)cc1 (centres unmarked) [Analog P38] | > 80 | 202 | 2 |  | 0.75 |  |  | 
N=C(N)c1ccc(OCCC2(CCOc3ccc(C(=N)N)cn3)CCCC2)nc1 [Analog P39] | 53.7 | 48.34 | 0.3125 |  | 0.094 |  |  | 
CO[C@@H]1[C@@H](OC(N)=O)[C@@H](O)[C@H](Oc2ccc3c(O)c(NC(=O)c4ccc(O)c(CC=C(C)C)c4)c(=O)oc3c2C)OC1(C)C [novobiocin, reference compound] |  |  |  |  |  |  |  | no significant impact
colistin [reference compound] |  | 7.81 |  |  |  |  |  | 
